Test results as given in the supplement of paper PMC10627819.

Tested on: S. pneumoniae D39V
Assay: fitness (endpoint OD595 vs no drug) (fraction); higher = more growth
In short: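 Growth medium was TSB, LB Lennox or CY, and plates were kept at 37 °C. Inoculation was at OD595 0.01 in 384-well plates, at 30 µl per well or 55 µl for S. pneumoniae. OD595 was monitored every 30 min for 14 h and background-subtracted using the first reading. Fitness is the optical density on entering stationary phase divided by the robust mean of no-drug controls, with values capped at 1.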
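Note: OD595 on entry to stationary phase over no-drug wells; at most 1.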

CC(=O)Oc1ccccc1C(=O)O [Acetylsalicylic acid] + C[C@H]1COc2c(N3CCN(C)CC3)c(F)cc3c(=O)c(C(=O)O)cn1c23 [Levofloxacin]
fitness
Conditions | partner 0.1725 µg/mL | partner 0.2 µg/mL | partner 0.345 µg/mL | partner 0.4 µg/mL | partner 0.69 µg/mL | partner 0.8 µg/mL
first compound 250 µg/mL | 0.992 | 0.92 | 0.954 | 0.868 | 0.671 | 0.673
first compound 500 µg/mL | ≥ 1 | 0.929 | 0.9 | 0.898 | 0.692 | 0.653
first compound 1000 µg/mL | 0.95 | 0.881 | 0.938 | 0.734 | 0.716 | 0.513

CC(=O)Oc1ccccc1C(=O)O [Acetylsalicylic acid] + C[C@H]1c2cccc(O)c2C(=O)C2=C(O)[C@]3(O)C(=O)C(C(N)=O)=C(O)[C@@H](N(C)C)[C@@H]3[C@@H](O)[C@@H]21 [Doxycycline]
fitness, one replicate
Conditions | first compound 250 µg/mL | first compound 500 µg/mL | first compound 1000 µg/mL
partner 0.003875 µg/mL | ≥ 1 | ≥ 1 | 0.95
partner 0.00775 µg/mL | 0.998 | ≥ 1 | ≥ 1

fitness
Conditions | first compound 250 µg/mL | first compound 500 µg/mL | first compound 1000 µg/mL
partner 0.0155 µg/mL | 0.907 | 0.941 | 0.842
partner 0.031 µg/mL | 0.825 | 0.822 | 0.668

CC(=O)Oc1ccccc1C(=O)O [Acetylsalicylic acid] + Clc1ccc(COC(Cn2ccnc2)c2ccc(Cl)cc2Cl)c(Cl)c1 [Miconazole]
fitness
Conditions | partner 1.073 µg/mL | partner 1.25 µg/mL | partner 2.145 µg/mL | partner 2.5 µg/mL | partner 4.29 µg/mL | partner 5 µg/mL
first compound 250 µg/mL | ≥ 1 | 0.902 | 0.943 | 0.863 | 0.9 | 0.937
first compound 500 µg/mL | ≥ 1 | 0.816 | 0.918 | 0.772 | 0.858 | 0.844
first compound 1000 µg/mL | ≥ 1 | 0.643 | 0.957 | 0.589 | 0.875 | 0.656

CC(=O)Oc1ccccc1C(=O)O [Acetylsalicylic acid] + O=C1CN(/N=C/c2ccc([N+](=O)[O-])o2)C(=O)N1 [Nitrofurantoin]
fitness
Conditions | partner 1.285 µg/mL | partner 2 µg/mL | partner 2.57 µg/mL | partner 4 µg/mL | partner 8 µg/mL
first compound 250 µg/mL | 0.979 | 0.9 | 0.973 | 0.91 | 0.813
first compound 500 µg/mL | 0.974 | 0.835 | 0.947 | 0.786 | 0.742
first compound 1000 µg/mL | 0.931 | 0.513 | 0.93 | 0.446 | 0.467

partner 5.14 µg/mL, one replicate
Conditions | fitness
first compound 250 µg/mL | 0.93
first compound 500 µg/mL | 0.888
first compound 1000 µg/mL | 0.813

CC(=O)Oc1ccccc1C(=O)O [Acetylsalicylic acid] + O=C(O)[C@H]1/C(=C/CO)O[C@@H]2CC(=O)N21 [Clavulanic acid]
fitness
Conditions | first compound 250 µg/mL | first compound 500 µg/mL | first compound 1000 µg/mL
partner 0.5 µg/mL | 0.954 | 0.967 | 0.696
partner 1 µg/mL | 0.902 | 0.902 | 0.696
partner 2 µg/mL | 0.884 | 0.819 | 0.596

CC(=O)Oc1ccccc1C(=O)O [Acetylsalicylic acid] + O=C(O)c1cn(C2CC2)c2cc(N3CCNCC3)c(F)cc2c1=O [Ciprofloxacin]
fitness
Conditions | first compound 250 µg/mL | first compound 500 µg/mL | first compound 1000 µg/mL
partner 0.125 µg/mL | 0.963 | 0.907 | 0.863
partner 0.25 µg/mL | 0.883 | 0.904 | 0.833
partner 0.5 µg/mL | 0.835 | 0.835 | 0.719

CN(C)[C@@H]1C(O)=C(C(N)=O)C(=O)[C@@]2(O)C(O)=C3C(=O)c4c(O)ccc(Cl)c4[C@@](C)(O)[C@H]3C[C@@H]12 [Chlortetracycline] + C/C(=C\C(=O)OCCCCCCCCC(=O)O)C[C@@H]1OC[C@H](C[C@@H]2O[C@H]2[C@@H](C)[C@H](C)O)[C@@H](O)[C@H]1O [Pseudomonic acid]
fitness
Conditions | first compound 0.012 µg/mL | first compound 0.024 µg/mL | first compound 0.048 µg/mL | first compound 0.375 µg/mL | first compound 0.75 µg/mL | first compound 1.5 µg/mL
partner 0.03 µg/mL | 0.884 | 0.853 | 0.829 | 0.0434 | 0.0614 | 0.0477
partner 0.06 µg/mL | 0.78 | 0.75 | 0.779 | 0.0787 | 0.0801 | 0.0542
partner 0.12 µg/mL | 0.57 | 0.586 | 0.62 | 0.0891 | 0.0486 | 0.0665

CN(C)[C@@H]1C(O)=C(C(N)=O)C(=O)[C@@]2(O)C(O)=C3C(=O)c4c(O)ccc(Cl)c4[C@@](C)(O)[C@H]3C[C@@H]12 [Chlortetracycline] + CO[C@H]1/C=C/O[C@@]2(C)Oc3c(C)c(O)c4c(O)c(c(/C=N/N5CCN(C)CC5)c(O)c4c3C2=O)NC(=O)/C(C)=C\C=C\[C@H](C)[C@H](O)[C@@H](C)[C@@H](O)[C@@H](C)[C@H](OC(C)=O)[C@@H]1C [Rifampicin]
fitness, one replicate
Conditions | first compound 0.012 µg/mL | first compound 0.024 µg/mL | first compound 0.048 µg/mL
partner 0.025 µg/mL | 0.844 | 0.793 | 0.642
partner 0.2 µg/mL | 0 | 0 | 0

fitness
Conditions | first compound 0.012 µg/mL | first compound 0.024 µg/mL | first compound 0.048 µg/mL | first compound 0.375 µg/mL | first compound 0.75 µg/mL | first compound 1.5 µg/mL
partner 0.025 µg/mL | – | – | – | 0.0932 | 0.0627 | 0.0877
partner 0.05 µg/mL | 0.729 | 0.687 | 0.46 | 0.077 | 0.103 | 0.113
partner 0.1 µg/mL | 0.472 | 0.429 | 0.272 | 0.102 | 0.102 | 0.14

CN(C)[C@@H]1C(O)=C(C(N)=O)C(=O)[C@@]2(O)C(O)=C3C(=O)c4c(O)ccc(Cl)c4[C@@](C)(O)[C@H]3C[C@@H]12 [Chlortetracycline] + C[C@@H](O)[C@H]1C(=O)N2C(C(=O)O)=C(SCCNC=N)C[C@H]12 [Imipenem]
fitness
Conditions | first compound 0.012 µg/mL | first compound 0.024 µg/mL | first compound 0.048 µg/mL | first compound 0.375 µg/mL | first compound 0.75 µg/mL | first compound 1.5 µg/mL
partner 0.005 µg/mL | – | – | – | 0.0486 | 0.0409 | 0.0284
partner 0.0065 µg/mL | 0.894 | 0.799 | 0.686 | – | – | –
partner 0.01 µg/mL | – | – | – | 0.0501 | 0.0583 | 0.0373
partner 0.013 µg/mL | 0.863 | 0.865 | 0.837 | – | – | –
partner 0.02 µg/mL | – | – | – | 0.0339 | 0.065 | 0.065
partner 0.026 µg/mL | 0.724 | 0.761 | 0.724 | – | – | –

CN(C)[C@@H]1C(O)=C(C(N)=O)C(=O)[C@@]2(O)C(O)=C3C(=O)c4c(O)ccc(Cl)c4[C@@](C)(O)[C@H]3C[C@@H]12 [Chlortetracycline] + Clc1ccc(COC(Cn2ccnc2)c2ccc(Cl)cc2Cl)c(Cl)c1 [Miconazole]
fitness
Conditions | first compound 0.012 µg/mL | first compound 0.024 µg/mL | first compound 0.048 µg/mL | first compound 0.375 µg/mL | first compound 0.75 µg/mL | first compound 1.5 µg/mL
partner 1.073 µg/mL | 0.995 | 0.926 | 0.907 | – | – | –
partner 1.25 µg/mL | – | – | – | 0.0819 | 0.0494 | 0.0765
partner 2.145 µg/mL | 0.971 | 0.935 | 0.879 | – | – | –
partner 2.5 µg/mL | – | – | – | 0.104 | 0.0646 | 0.0895
partner 4.29 µg/mL | 0.913 | 0.883 | 0.793 | – | – | –
partner 5 µg/mL | – | – | – | 0.0525 | 0.0422 | 0.0647
